{
  "source": "patent US6262067A",
  "about": "“Polymorphs of a crystalline azo-bicyclo 2,2,2 OCT-3-yl amine dihydrochloride and their pharmaceutical compositions” (priority 2000, dated 2001)",
  "format_in_all_cases": "physicochemical",
  "key": {"[1]": {"experiment": "Ambient polymorph screen with wet solvents (slurry conversion, relative form stability)", "conditions": "for Polymorph Isolated: starting Form I, ambient"}, "[2]": {"experiment": "Solubility of polymorphs (aqueous intrinsic / aqueous equilibrium solubility)"}, "[3]": {"experiment": "Hygroscopicity / water uptake and loss at relative humidity (VTI)"}, "[4]": {"experiment": "Thermal water loss and degradation (TGA/DTA, DSC, fusion microscopy)"}},
  "note": "Structures can show the parent of a compound that is named as a salt. Where two headings read alike, the source gives them in different places.",
  "data": [
    {"smiles": "COc1ccc(C(C)C)cc1CN[C@H]1C2CCN(CC2)[C@H]1C(c1ccccc1)c1ccccc1", "note": "[Form I, (2-Benzhydryl-1-azo-bicyclo 2,2,2oct-3-yl)-(5-isoproyl-2-methoxybenzyl)-amine]", "values": [
      {"measurement": "conversion to Form II in slurry", "setting": "[1]; THF with about 3% to 5% H2 O", "result": "the conversion is to Form II"},
      {"measurement": "conversion to Form II in slurry", "setting": "[1]; THF with less than 2% H2 O", "result": "no conversion to Form II"},
      {"measurement": "Polymorph Isolated", "setting": "[1]; Acetone/5% H2 O, slurry", "result": "Form II"},
      {"measurement": "Polymorph Isolated", "setting": "[1]; Acetonitrile/5% H2 O, slurry", "result": "Form I"},
      {"measurement": "Polymorph Isolated", "setting": "[1]; Ethyl Acetate/3.5% H2 O, slurry", "result": "Form II"},
      {"measurement": "Polymorph Isolated", "setting": "[1]; H2 O, solutions seeded with Form II", "result": "Form II"},
      {"measurement": "Polymorph Isolated", "setting": "[1]; IPO/5% H2 O, slurry", "result": "Form I"},
      {"measurement": "Polymorph Isolated", "setting": "[1]; Tetrahydrofuran/5% H2 O, slurry", "result": "Form II"},
      {"measurement": "Aqueous Equilibrium", "setting": "[2]; aqueous", "result": "> 1155", "unit": "mg/mL"},
      {"measurement": "solubility in wet THF (in words)", "setting": "[2]; slurried in THF with >5% H2 O", "result": "solubility increases dramatically"},
      {"measurement": "solubility", "setting": "[2]; water, aqueous, intrinsic, read-out: Aqueous Intrinsic Solubility", "result": "> 648", "unit": "mg/mL"},
      {"measurement": "hygroscopicity (in words)", "setting": "[3]", "result": "nonhydroscopic"},
      {"measurement": "VTI (% H2 O absorbed)", "setting": "[3]", "result": 0.8, "unit": "% wt."},
      {"measurement": "DSC degradation temperature", "setting": "[4]; DSC", "result": "~ 230 °C"},
      {"measurement": "DSC water loss (in words)", "setting": "[4]; DSC", "result": "undetected"},
      {"measurement": "TGA/DTA degradation temperature", "setting": "[4]", "result": 194, "unit": "°C"},
      {"measurement": "Fusion Microscopy water loss (in words)", "setting": "[4]; fusion microscopy", "result": "Slow water loss"}
    ]},
    {"smiles": "COc1ccc(C(C)C)cc1CN[C@H]1C2CCN(CC2)[C@H]1C(c1ccccc1)c1ccccc1", "note": "[Form II, (2-Benzhydryl-1-azo-bicyclo 2,2,2oct-3-yl)-(5-isoproyl-2-methoxybenzyl)-amine]", "values": [
      {"measurement": "relative stability of the polymorph", "setting": "[1]; compared with Form I", "result": "lower energy, more stable form than Form I"},
      {"measurement": "Aqueous Equilibrium", "setting": "[2]; aqueous", "result": 395, "unit": "mg/mL"},
      {"measurement": "Aqueous Intrinsic Solubility", "setting": "[2]; aqueous, intrinsic", "result": "< 329", "unit": "mg/mL"},
      {"measurement": "solubility", "setting": "[2]; medium not stated", "result": "390-400 milligrams per milliliter"},
      {"measurement": "VTI (% H2 O absorbed)", "setting": "[3]", "result": 0.4, "unit": "% wt."},
      {"measurement": "TGA/DTA degradation temperature", "setting": "[4]", "result": 178, "unit": "°C"},
      {"measurement": "Fusion Microscopy water loss (in words)", "setting": "[4]; fusion microscopy", "result": "Sharp water loss"},
      {"measurement": "Fusion Microscopy water loss temperature", "setting": "[4]; fusion microscopy", "result": "~ 100 °C"}
    ]},
    {"smiles": "COc1ccc(C(C)C)cc1CN[C@H]1C2CCN(CC2)[C@H]1C(c1ccccc1)c1ccccc1", "note": "[anhydrous dihydrochloride, anhydrous dihydrochloride of (2-Benzhydryl-1-azo-bicyclo 2,2,2oct-3-yl)-(5-isoproyl-2-methoxybenzyl)-amine]", "values": [
      {"measurement": "hygroscopicity (in words)", "setting": "[3]", "result": "hygroscopic"},
      {"measurement": "hygroscopicity (humidity at which hygroscopic and forms dihydrates)", "setting": "[3]; about 52% humidity or greater", "result": "≥ 52", "unit": "%"}
    ]}
  ]
}
